Results taken from ChEMBL document CHEMBL5331133, “Discovery of AZD4747, a Potent and Selective Inhibitor of Mutant GTPase KRASG12C with Demonstrable CNS Penetration” (J Med Chem, 2023).

Assays:
[1] = […] stability in rat hepatocyte assessed as intrinsic clearance measured per million of cells; assay type: ADME, cell-based; details: hepatocytes
in vitro = details: human, liver microsomes, CLH
Description: (§2) Microsomal stability in human liver microsomes assessed as intrinsic clearance

MDR1 and BCRP = experiment: (§1) Efflux ratio of apparent permeability in dog MDCK cells transfected with MDR1 and BCRP at 0.1 uM; assay type: ADME, cell-based, Canis lupus familiaris
[2] = Lipophilicity, logD of compound at 7.4; details: octanol/water
[3] = Dissociation constant, pKa of the compound; assay type: physicochemical
[4] = Unbound brain-to-plasma concentration ratio in Wistar Han rat at 2.3 microM/Kg, iv and measured after 4 hrs; assay type: ADME, organism-based; details: read-out: K(p,uu,brain)
GTPase KRas = GTPase KRas (Homo sapiens, UniProt P01116, G12C)
[5] = as §1; assay type: ADME, cell-based, Canis lupus familiaris; details: mdck, 0.1 µM
[6] = human, microsomes
Description: as §2

NCI-H358 = experiment: Antiproliferative activity against human NCI-H358 cells harboring KRAS G12C mutant cultured as 3D spheroids assessed as reduction in cell proliferation incubated for 3 days by CellTiter-Glo 3D reagent based assay; assay type: functional; details: NCI-H358, 72 h

Sequence of GTPase KRas (P01116 whole entry G12C): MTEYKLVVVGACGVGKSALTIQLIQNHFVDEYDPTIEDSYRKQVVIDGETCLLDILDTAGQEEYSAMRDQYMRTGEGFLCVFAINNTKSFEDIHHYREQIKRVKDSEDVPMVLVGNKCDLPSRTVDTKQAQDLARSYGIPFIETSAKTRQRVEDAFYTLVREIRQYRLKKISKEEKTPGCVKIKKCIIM

## C#Cc1cc2c(c(F)c1-c1c(O)cccc1Cl)OC[C@H]1CN(C(=O)C=C)CCN1C2
[1]
  CLH: 23 µL/min
In vitro
  microsomal CLint: 16 µL/min/mg
MDR1 and BCRP
  efflux ratio at 0.1 µM: 1
[2]; pH 7.4, logD
  logD: 2.7
[3]
  pKa: 3.9
[4]
  Kp uu at 4 h: 0.05
GTPase KRas
  IC50: 0.019 µM

## C=CC(=O)N1CCN2Cc3ccc(-c4c(C)ccc5[nH]ncc45)c(Cl)c3OC[C@@H]2C1
[1]
  CLH: 130 µL/min
In vitro
  microsomal CLint: > 294 µL/min/mg
MDR1 and BCRP
  efflux ratio at 0.1 µM: 0.9
[2]; pH 7.4, logD
  logD: 3.5
[4]
  Kp uu at 4 h: 0.41
GTPase KRas
  IC50: 1.31 µM

## C=CC(=O)N1CCN2C(=O)c3cc(OCCOC)c(-c4c(O)cccc4Cl)c(F)c3OC[C@H]2C1
[1]
  CLH: 48 µL/min
In vitro
  microsomal CLint: 41 µL/min/mg
[2]; pH 7.4, logD
  logD: 2
GTPase KRas
  IC50: 0.099 µM

## C=CC(=O)N1CCN2Cc3cc(OC)c(-c4c(O)cccc4Cl)c(F)c3OC[C@H]2C1
[1]
  CLH: 59 µL/min
In vitro
  microsomal CLint: 15 µL/min/mg
MDR1 and BCRP
  efflux ratio at 0.1 µM: 1.9
[2]; pH 7.4, logD
  logD: 2.2
GTPase KRas
  IC50: 0.074 µM

## C=CC(=O)N1CCN2Cc3cc(F)c(-c4c(O)cccc4Cl)c(F)c3OC[C@H]2C1.O
[1]
  CLH: 20 µL/min
In vitro
  microsomal CLint: < 7 µL/min/mg
MDR1 and BCRP
  efflux ratio at 0.1 µM: 0.7
[2]; pH 7.4, logD
  logD: 2.8
[3]
  pKa: 3.9
[4]
  Kp uu at 4 h: 0.11
GTPase KRas
  IC50: 0.043 µM

## C=CC(=O)N1CCN(Cc2cc(F)c(-c3c(O)cccc3Cl)c(F)c2)CC1
[1]
  CLH: 122 µL/min
In vitro
  microsomal CLint: < 3 µL/min/mg
[2]; pH 7.4, logD
  logD: 3.3
GTPase KRas
  IC50: 7.82 µM

## C=CC(=O)N1CCN2Cc3cc(OC(F)F)c(-c4c(O)cccc4Cl)c(F)c3OC[C@H]2C1
[1]
  CLH: 143 µL/min
In vitro
  microsomal CLint: 18 µL/min/mg
[2]; pH 7.4, logD
  logD: 2.7
GTPase KRas
  IC50: 0.16 µM

## C=CC(=O)N1CCN2Cc3cc(F)c(-c4c(O)cccc4F)c(Cl)c3OC[C@H]2C1
[1]
  CLH: 42 µL/min
In vitro
  microsomal CLint: 8 µL/min/mg
MDR1 and BCRP
  efflux ratio at 0.1 µM: 1.2
[2]; pH 7.4, logD
  logD: 2.8
GTPase KRas
  IC50: 0.149 µM

## C=CC(=O)N1CCN2Cc3cc(C(F)F)c(-c4c(O)cccc4Cl)c(F)c3OC[C@H]2C1
[1]
  CLH: 99 µL/min
In vitro
  microsomal CLint: 63 µL/min/mg
[2]; pH 7.4, logD
  logD: 3
GTPase KRas
  IC50: 0.13 µM

## C=CC(=O)N1CCN2Cc3cc(OCCN(C)C)c(-c4c(O)cccc4Cl)c(F)c3OC[C@H]2C1
[1]
  CLH: 8 µL/min
In vitro
  microsomal CLint: 10 µL/min/mg
MDR1 and BCRP
  efflux ratio at 0.1 µM: 12.4
[2]; pH 7.4, logD
  logD: 1
GTPase KRas
  IC50: 0.11 µM

## C=CC(=O)N1CCN2C(=O)c3ccc(-c4c(C)ccc5[nH]ncc45)c(Cl)c3OC[C@@H]2C1
[1]
  CLH: 93 µL/min
In vitro
  microsomal CLint: 54 µL/min/mg
MDR1 and BCRP
  efflux ratio at 0.1 µM: 1.4
[2]; pH 7.4, logD
  logD: 2.8
GTPase KRas
  IC50: 4.3 µM

## C=CC(=O)N1CCN2Cc3cc(C#N)c(-c4c(O)cccc4Cl)c(F)c3OC[C@H]2C1
[1]
  CLH: 54 µL/min
In vitro
  microsomal CLint: 13 µL/min/mg
MDR1 and BCRP
  efflux ratio at 0.1 µM: 6.5
[2]; pH 7.4, logD
  logD: 2.5
GTPase KRas
  IC50: 0.016 µM

## C=CC(=O)N1CCN2Cc3ccc(-c4c(C)ccc5[nH]ncc45)c(Cl)c3OCCC2C1 (stereo in doubt; 19)
[1]
  CLH: 234 µL/min
In vitro
  microsomal CLint: 294 µL/min/mg
MDR1 and BCRP
  efflux ratio at 0.1 µM: 1.4
[2]; pH 7.4, logD
  logD: 3.2
GTPase KRas
  IC50: 8.29 µM

## C=CC(=O)N1C[C@H]2CCOc3c(Cl)c(-c4c(O)cccc4F)c(F)c4ncnc(c34)N2C[C@H]1C
[1]
  CLH: 41 µL/min
In vitro
  microsomal CLint: 26 µL/min/mg
MDR1 and BCRP
  efflux ratio at 0.1 µM: 37.2
[2]; pH 7.4, logD
  logD: 3.2
[4]
  Kp uu at 4 h: 0.06
GTPase KRas
  IC50: 0.003 µM

## C=CC(=O)N1CCN2Cc3cc(OC4CC4)c(-c4c(O)cccc4Cl)c(F)c3OC[C@H]2C1
[1]
  CLH: 174 µL/min
In vitro
  microsomal CLint: 25 µL/min/mg
[2]; pH 7.4, logD
  logD: 2.6
GTPase KRas
  IC50: 0.081 µM

## C=CC(=O)N1CCN2Cc3ccc(-c4c(C)ccc5[nH]ncc45)c(Cl)c3OCCC2C1 (stereo in doubt; 20)
[1]
  CLH: 97 µL/min
[5]
  Ratio: 2.1
[2]; pH 7.4
  logD: 3.3
[6]
  CLH: > 300 µL/min/mg
GTPase KRas
  IC50: 4.01 µM

## C#Cc1cc(CN2CCN(C(=O)C=C)CC2)cc(F)c1-c1c(O)cccc1Cl
[1]
  CLH: 38 µL/min
In vitro
  microsomal CLint: 18 µL/min/mg
[2]; pH 7.4, logD
  logD: 3.2
GTPase KRas
  IC50: 13.6 µM

## C=CC(=O)N1CCN2Cc3cc(C4CC4)c(-c4c(O)cccc4Cl)c(F)c3OC[C@H]2C1
[1]
  CLH: 101 µL/min
In vitro
  microsomal CLint: 97 µL/min/mg
[2]; pH 7.4, logD
  logD: 3.2
GTPase KRas
  IC50: 0.022 µM

## C=CC(=O)N1CCN2Cc3ccc(-c4c(O)cccc4F)c(Cl)c3OC[C@H]2C1
[1]
  CLH: 52 µL/min
In vitro
  microsomal CLint: 33 µL/min/mg
MDR1 and BCRP
  efflux ratio at 0.1 µM: 0.8
GTPase KRas
  IC50: 0.231 µM

## C=CC(=O)N1CCN(c2nc(=O)n(-c3c(C)ccnc3C(C)C)c3nc(-c4c(O)cccc4F)c(F)cc23)[C@@H](C)C1 [SOTORASIB]
[1]
  CLH: 18 µL/min
In vitro
  microsomal CLint: 36 µL/min/mg
[2]; pH 7.4, logD
  logD: 2.3
[4]
  Kp uu at 4 h: 0.01
NCI-H358
  IC50: 0.001 µM

## C=CC(=O)N1CCN2Cc3cc(F)c(-c4c(C)cccc4O)c(F)c3OC[C@H]2C1
[1]
  CLH: 29 µL/min
In vitro
  microsomal CLint: 19 µL/min/mg
MDR1 and BCRP
  efflux ratio at 0.1 µM: 1.2
[2]; pH 7.4, logD
  logD: 2.4
[4]
  Kp uu at 4 h: 0.15
GTPase KRas
  IC50: 0.09 µM

## C=C(F)C(=O)N1CCN(c2nc(OC[C@@H]3CCCN3C)nc3c2CCN(c2cccc4cccc(Cl)c24)C3)C[C@@H]1CC#N [ADAGRASIB]
[1]
  CLH: 12 µL/min
In vitro
  microsomal CLint: 80 µL/min/mg
[2]; pH 7.4, logD
  logD: 3.6
[4]
  Kp uu at 4 h: 0.01
NCI-H358
  IC50: 0.006 µM

## C=CC(=O)N1CCN2Cc3ccc(-c4c(C)ccc5[nH]ncc45)c(Cl)c3OC[C@H]2C1
[1]
  CLH: 156 µL/min
In vitro
  microsomal CLint: 86 µL/min/mg
MDR1 and BCRP
  efflux ratio at 0.1 µM: 0.4
[2]; pH 7.4, logD
  logD: 3.2
[4]
  Kp uu at 4 h: 0.24
GTPase KRas
  IC50: 0.332 µM

## C=CC(=O)N1CCN2c3ncnc4cc(-c5c(C)ccc6[nH]ncc56)c(Cl)c(c34)OC[C@@H]2C1
[1]
  CLH: 109 µL/min
In vitro
  microsomal CLint: 58 µL/min/mg

## C=CC(=O)N1CCN2Cc3cc(Cl)c(-c4c(O)cccc4Cl)c(F)c3OC[C@H]2C1
[1]
  CLH: 44 µL/min
In vitro
  microsomal CLint: 17 µL/min/mg
MDR1 and BCRP
  efflux ratio at 0.1 µM: 0.6
[2]; pH 7.4, logD
  logD: 3.2
GTPase KRas
  IC50: 0.029 µM

## C=CC(=O)N1CCN2Cc3cc(F)c(-c4c(O)cccc4F)c(F)c3OC[C@H]2C1
[1]
  CLH: 18 µL/min
In vitro
  microsomal CLint: 5 µL/min/mg
[2]; pH 7.4, logD
  logD: 2.5
GTPase KRas
  IC50: 0.279 µM
